Measurements from article PMC12268802, “The herbicidal natural product phosphonothrixin is an inhibitor of the riboflavin biosynthetic enzyme L‐3,4‐dihydroxy‐2‐butanone‐4‐phosphate synthase” (Pest Management Science, 2025).

Legend:
[1] = system: gramineous and broadleaf weeds; design: method as in PMID 7490218, PMID 7490219; settings: cited from earlier work
[2] = system: mono‐ and dicotyledonous weed plants; experiment: Greenhouse test, pre-emergence; type: in vivo; settings: highest application rate tested; data not shown
[3] = system: mono‐ and dicotyledonous weed plants; experiment: Greenhouse test, post-emergence, phenotype of affected plants; type: in vivo
Protocol: (§1) Seeds of mono‐ and dicotyledonous weed plants were sown in plastic pots of 7 cm diameter filled with a clayey silt soil substrate. The plants were maintained for the preparatory phase of germination and initial growth in the greenhouse under optimum growth conditions. Phosphonothrixin (1) was prepared for application as an emulsion concentrate and diluted together with 0.2% agrotin (a polyfunctional non‐ionic additive) in water corresponding to a spray volume of approximately 600 L ha^−1. At a growth stage of 2 to 4 true leaves the test plants were sprayed and then placed in the greenhouse for 3 weeks under optimum growth conditions. Subsequently, the effect of phosphonothrixin (1) was assessed visually relative to the untreated controls resulting in herbicidal effects (%) ranging from 0% (no effect = untreated control) to 100% (complete control = died‐off ).

Lemna gibba = Lemna gibba growth assay; type: in vivo; settings: 100 μM phosphonothrixin; 7 days
Protocol: Growth experiments were performed in sterile 6‐well cell culture plates and were initiated by transferring four Lemna gibba fronds per well to 5 mL of K‐medium[22] pH 4.8 containing 1% (w/v) sucrose and a selected concentration of phosphonothrixin (1) and riboflavin determined from previous experiments. The cell culture plates were incubated for 7 days in a growth cabinet at 22 °C and a continuous photon flux density of 75 μE/m^2s.

AtDHBPS [4] = target: T1, AtDHBPS (Arabidopsis thaliana, UniProt P47924); experiment: Thermal stability shift analysis; type: binding; settings: 6.5 μM AtDHBPS
T1 construct: made in house; host or cells: Escherichia coli BL21(DE3)
T1 sequence (P47924 with tags, fused parts or gaps): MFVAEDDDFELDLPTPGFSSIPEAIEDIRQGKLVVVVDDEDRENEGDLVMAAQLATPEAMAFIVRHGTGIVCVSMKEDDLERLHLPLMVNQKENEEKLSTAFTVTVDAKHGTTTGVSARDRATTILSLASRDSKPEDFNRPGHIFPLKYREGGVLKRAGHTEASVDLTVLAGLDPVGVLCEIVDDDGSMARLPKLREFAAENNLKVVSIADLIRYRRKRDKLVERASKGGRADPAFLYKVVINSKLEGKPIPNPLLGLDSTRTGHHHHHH
Protocol: AtDHBPS melting curves were determined in 96‐well microtiter plates in a Roche Light Cycler 480. The assay mixture contained 50 mM HEPES pH 7.5, 75 mM NaCl, 2.5 mM MgCl2, 7.5x SYPRO Orange and 6.5 μM AtDHBPS in a total volume of 20 μL. A linear temperature gradient from 25 to 85 °C with a ramping of 3.25 °C min^−1 was applied. Melting temperatures were determined from plots of the first derivative of the fluorescence intensity versus temperature.

AtDHBPS [5] = target: T1, AtDHBPS; experiment: DHBPS activity assay; type: biochemical
Protocol: (§2) DHBPS activity assays were out carried in 96‐well microtiter plates using a modification of the procedure previously described.[18] The reaction mixture contained 100 mM MES (2‐morpholinoethanesulfonic acid) buffer pH 6.5, 20 mM MgCl2, 20 mM D‐ribose‐5‐phosphate (Sigma‐Aldrich R7750), 0.02% Tween‐20, 0.2 mg BSA, 0.5 μg of spinach phosphoriboisomerase (Sigma‐Aldrich P9752) and DHBPS enzyme in a final volume of 110 μL. Assays were initiated by adding enzyme and terminated after 120 min incubation at rt by the addition of 90 μL of a solution of 3.5% α‐naphthol and 0.2% creatine in 2 N NaOH. After an additional 45 min incubation at rt the absorbance was determined at 540 nm. The pI50‐value for inhibition by phosphonothrixin (1) was determined with the XLFit Excel add‐in version 4.3.1 curve fitting program of ID Business Solutions Limited. […] Reaction velocities were fitted to the Michaelis–Menten equation with the XLFit curve fitting program.

ZtDHBPS = ZtDHBPS (Zymoseptoria tritici, UniProt F9X7Z9); experiment: DHBPS activity assay; type: biochemical
Protocol: as §2

[6] = system: Alopecurus myosuroides (ALOMY); experiment: Herbicidal greenhouse screening, post-emergence; type: in vivo; settings: visual, 3 weeks after spraying
Protocol: as §1

[7] = system: Lolium multiflorum (LOLMU); experiment: Herbicidal greenhouse screening, post-emergence; type: in vivo; settings: visual, 3 weeks after spraying
Protocol: as §1

Avena fatua (AVEFA) = experiment: Herbicidal greenhouse screening, post-emergence; type: in vivo; settings: visual, 3 weeks after spraying
Protocol: as §1

[8] = system: Matricaria inodora (MATIN); experiment: Herbicidal greenhouse screening, post-emergence; type: in vivo; settings: visual, 3 weeks after spraying
Protocol: as §1

[9] = system: Triticum aestivum (spring wheat, TRZAS); experiment: Herbicidal greenhouse screening, post-emergence; type: in vivo; settings: visual, 3 weeks after spraying
Protocol: as §1

[10] = system: Abutilon theophrasti (ABUTH); experiment: Herbicidal greenhouse screening, post-emergence; type: in vivo; settings: visual, 3 weeks after spraying
Protocol: as §1

[11] = system: Polygonum convolvulus (POLCO); experiment: Herbicidal greenhouse screening, post-emergence; type: in vivo; settings: visual, 3 weeks after spraying
Protocol: as §1

[12] = system: Pharbitis purpurea (PHBPU); experiment: Herbicidal greenhouse screening, post-emergence; type: in vivo; settings: visual, 3 weeks after spraying
Protocol: as §1

Zea mays (ZEAMX) = experiment: Herbicidal greenhouse screening, post-emergence; type: in vivo; settings: visual, 3 weeks after spraying
Protocol: as §1

Setaria viridis (SETVI) = experiment: Herbicidal greenhouse screening, post-emergence; type: in vivo; settings: visual, 3 weeks after spraying
Protocol: as §1

Chain of ZtDHBPS (F9X7Z9 1-226): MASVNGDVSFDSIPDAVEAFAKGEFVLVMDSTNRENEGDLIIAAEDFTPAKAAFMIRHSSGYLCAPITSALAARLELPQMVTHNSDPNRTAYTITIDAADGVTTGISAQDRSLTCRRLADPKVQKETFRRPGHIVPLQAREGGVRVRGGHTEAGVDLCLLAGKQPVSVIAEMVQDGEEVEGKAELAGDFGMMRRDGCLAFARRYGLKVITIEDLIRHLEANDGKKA

**Q.** Which “effect after foliar application” value [1] does the source give for CC(=O)C(O)(CO)CP(=O)(O)O (centres unmarked) [phosphonothrixin] here?
**A.** chlorosis

**Q.** And the effect on germination ([1]; gramineous and broadleaf weeds)?
**A.** significantly inhibited germination

**Q.** And the pre-emergence herbicidal activity [2]?
**A.** failed to show any pre‐emergence activity

**Q.** What about the “phenotype of affected plants” value [3] of the same molecule?
**A.** bleaching phenotype

**Q.** And the “bleaching of Lemna gibba fronds” value (Lemna gibba)?
**A.** strong bleaching of the fronds

**Q.** What about the “growth of Lemna gibba” value (Lemna gibba) of the same molecule?
**A.** significant growth inhibition

**Q.** What about the ΔTm at 10 µM (AtDHBPS [4]; compound 10 μM, read-out: shift of the melting point (deltaTm) of AtDHBPS) of the same molecule?
**A.** 4 °C

**Q.** And the “deltaTm(max)” value (AtDHBPS [4]; from plot of deltaTm vs. concentration)?
**A.** 22.7 ± 0.6 °C

**Q.** What about the Kd (AtDHBPS [4]; from plot of deltaTm vs. concentration, read-out: Kd-value for binding to AtDHBPS) of the same molecule?
**A.** 31.1 ± 2.8 µM

**Q.** And the IC50 (AtDHBPS [5])?
**A.** 58 ± 11 µM

**Q.** What about the Ki (AtDHBPS [5]) of the same molecule?
**A.** 16.6 ± 5 µM

**Q.** What about the “type of inhibition of AtDHBPS” value (AtDHBPS [5]; with respect to the substrate) of the same molecule?
**A.** competitive inhibitor

**Q.** And the IC50 (ZtDHBPS)?
**A.** 19 µM

**Q.** And the “herbicidal effect rating, post-emergence” value ([6]; 320 g/ha)?
**A.** 1 (‘1’ = 20–39% inhibition)

**Q.** What about the “herbicidal effect rating, post-emergence” value ([6]; 1280 g/ha) of the same molecule?
**A.** 3 (‘3’ = 60–79% inhibition)

**Q.** And the “herbicidal effect rating, post-emergence” value ([6]; 5120 g/ha)?
**A.** 4 (‘4’ = 80–90% inhibition)

**Q.** What about the “herbicidal effect rating, post-emergence” value ([7]; 80 g/ha) of the same molecule?
**A.** 1 (‘1’ = 20–39% inhibition)

**Q.** And the “herbicidal effect rating, post-emergence” value ([7]; 320 g/ha)?
**A.** 3 (‘3’ = 60–79% inhibition)

**Q.** What about the “herbicidal effect rating, post-emergence” value ([7]; 1280 g/ha) of the same molecule?
**A.** 4 (‘4’ = 80–90% inhibition)

**Q.** And the “herbicidal effect rating, post-emergence” value ([7]; 5120 g/ha)?
**A.** 4 (‘4’ = 80–90% inhibition)

**Q.** And the “herbicidal effect rating, post-emergence” value (Avena fatua (AVEFA); 80 g/ha)?
**A.** 2 (‘2’ = 40–59% inhibition)

**Q.** And the “herbicidal effect rating, post-emergence” value (Avena fatua (AVEFA); 320 g/ha)?
**A.** 3 (‘3’ = 60–79% inhibition)

**Q.** And the “herbicidal effect rating, post-emergence” value (Avena fatua (AVEFA); 1280 g/ha)?
**A.** 4 (‘4’ = 80–90% inhibition)

**Q.** And the “herbicidal effect rating, post-emergence” value (Avena fatua (AVEFA); 5120 g/ha)?
**A.** 4 (‘4’ = 80–90% inhibition)

**Q.** What about the “herbicidal effect rating, post-emergence” value ([8]; 80 g/ha) of the same molecule?
**A.** 2 (‘2’ = 40–59% inhibition)

**Q.** What about the “herbicidal effect rating, post-emergence” value ([8]; 320 g/ha) of the same molecule?
**A.** 3 (‘3’ = 60–79% inhibition)

**Q.** And the “herbicidal effect rating, post-emergence” value ([8]; 1280 g/ha)?
**A.** 4 (‘4’ = 80–90% inhibition)

**Q.** What about the “herbicidal effect rating, post-emergence” value ([8]; 5120 g/ha) of the same molecule?
**A.** 4 (‘4’ = 80–90% inhibition)

**Q.** What about the “herbicidal effect rating, post-emergence” value ([9]; 320 g/ha) of the same molecule?
**A.** 1 (‘1’ = 20–39% inhibition)

**Q.** What about the “herbicidal effect rating, post-emergence” value ([9]; 1280 g/ha) of the same molecule?
**A.** 4 (‘4’ = 80–90% inhibition)

**Q.** And the “herbicidal effect rating, post-emergence” value ([9]; 5120 g/ha)?
**A.** 4 (‘4’ = 80–90% inhibition)

**Q.** What about the “herbicidal effect rating, post-emergence” value ([10]; 80 g/ha) of the same molecule?
**A.** 2 (‘2’ = 40–59% inhibition)

**Q.** And the “herbicidal effect rating, post-emergence” value ([10]; 320 g/ha)?
**A.** 3 (‘3’ = 60–79% inhibition)

**Q.** What about the “herbicidal effect rating, post-emergence” value ([10]; 1280 g/ha) of the same molecule?
**A.** 4 (‘4’ = 80–90% inhibition)

**Q.** What about the “herbicidal effect rating, post-emergence” value ([10]; 5120 g/ha) of the same molecule?
**A.** 4 (‘4’ = 80–90% inhibition)

**Q.** And the “herbicidal effect rating, post-emergence” value ([11]; 80 g/ha)?
**A.** 1 (‘1’ = 20–39% inhibition)

**Q.** And the “herbicidal effect rating, post-emergence” value ([11]; 320 g/ha)?
**A.** 1 (‘1’ = 20–39% inhibition)

**Q.** What about the “herbicidal effect rating, post-emergence” value ([11]; 1280 g/ha) of the same molecule?
**A.** 1 (‘1’ = 20–39% inhibition)

**Q.** What about the “herbicidal effect rating, post-emergence” value ([11]; 5120 g/ha) of the same molecule?
**A.** 2 (‘2’ = 40–59% inhibition)

**Q.** And the “herbicidal effect rating, post-emergence” value ([12]; 80 g/ha)?
**A.** 4 (‘4’ = 80–90% inhibition)

**Q.** What about the “herbicidal effect rating, post-emergence” value ([12]; 320 g/ha) of the same molecule?
**A.** 4 (‘4’ = 80–90% inhibition)

**Q.** What about the “herbicidal effect rating, post-emergence” value ([12]; 1280 g/ha) of the same molecule?
**A.** 4 (‘4’ = 80–90% inhibition)

**Q.** What about the “herbicidal effect rating, post-emergence” value ([12]; 5120 g/ha) of the same molecule?
**A.** 4 (‘4’ = 80–90% inhibition)

**Q.** And the “herbicidal effect rating, post-emergence” value (Zea mays (ZEAMX); 320 g/ha)?
**A.** 2 (‘2’ = 40–59% inhibition)

**Q.** What about the “herbicidal effect rating, post-emergence” value (Zea mays (ZEAMX); 1280 g/ha) of the same molecule?
**A.** 3 (‘3’ = 60–79% inhibition)

**Q.** What about the “herbicidal effect rating, post-emergence” value (Zea mays (ZEAMX); 5120 g/ha) of the same molecule?
**A.** 4 (‘4’ = 80–90% inhibition)

**Q.** And the “herbicidal effect rating, post-emergence” value (Setaria viridis (SETVI); 80 g/ha)?
**A.** 4 (‘4’ = 80–90% inhibition)

**Q.** What about the “herbicidal effect rating, post-emergence” value (Setaria viridis (SETVI); 320 g/ha) of the same molecule?
**A.** 4 (‘4’ = 80–90% inhibition)

**Q.** And the “herbicidal effect rating, post-emergence” value (Setaria viridis (SETVI); 1280 g/ha)?
**A.** 4 (‘4’ = 80–90% inhibition)

**Q.** What about the “herbicidal effect rating, post-emergence” value (Setaria viridis (SETVI); 5120 g/ha) of the same molecule?
**A.** 4 (‘4’ = 80–90% inhibition)
